The supplement of paper PMC13380429

How the values were obtained:
Conditions in all cases: 72 h
Caco-2 [1] = test: cell viability relative to DMSO; higher = less toxic
Calu-3 [2] = test: as above
HepG2 [3] = test: as above
Vero E6 [4] = test: as above
Caco-2 [5] = test: relative viability EC50 (midpoint between 100% and the lowest measured viability); higher = less toxic
Calu-3 [6] = test: as above
HepG2 [7] = test: as above
Vero E6 [8] = test: as above
Caco-2 [9] = test: drug sensitivity score (DSS) for viability; higher = more toxic; extreme values may be limits of the assay
Calu-3 [10] = test: as above
HepG2 [11] = test: as above
Vero E6 [12] = test: as above
U2OS [13] = test: cell viability relative to DMSO; higher = less toxic
U2OS [14] = test: relative viability EC50 (midpoint between 100% and the lowest measured viability); higher = less toxic
U2OS [15] = test: drug sensitivity score (DSS) for viability; higher = more toxic; extreme values may be limits of the assay

Row | SMILES | cell viability (Caco-2 [1]; 1 nM) | cell viability (Caco-2 [1]; 10 nM) | cell viability (Caco-2 [1]; 100 nM) | cell viability (Caco-2 [1]; 1000 nM) | cell viability (Caco-2 [1]; 10000 nM) | cell viability (Calu-3 [2]; 1 nM) | cell viability (Calu-3 [2]; 10 nM) | cell viability (Calu-3 [2]; 100 nM) | cell viability (Calu-3 [2]; 1000 nM) | cell viability (Calu-3 [2]; 10000 nM) | cell viability (HepG2 [3]; 1 nM) | cell viability (HepG2 [3]; 10 nM) | cell viability (HepG2 [3]; 100 nM) | cell viability (HepG2 [3]; 1000 nM) | cell viability (HepG2 [3]; 10000 nM) | cell viability (Vero E6 [4]; 1 nM) | cell viability (Vero E6 [4]; 10 nM) | cell viability (Vero E6 [4]; 100 nM) | cell viability (Vero E6 [4]; 1000 nM) | cell viability (Vero E6 [4]; 10000 nM) | relative viability EC50 (Caco-2 [5]) | relative viability EC50 (Calu-3 [6]) | relative viability EC50 (HepG2 [7]) | relative viability EC50 (Vero E6 [8]) | drug sensitivity score (Caco-2 [9]) | drug sensitivity score (Calu-3 [10]) | drug sensitivity score (HepG2 [11]) | drug sensitivity score (Vero E6 [12]) | cell viability (U2OS [13]; 1 nM) | cell viability (U2OS [13]; 10 nM) | cell viability (U2OS [13]; 100 nM) | cell viability (U2OS [13]; 1000 nM) | cell viability (U2OS [13]; 10000 nM) | relative viability EC50 (U2OS [14]) | drug sensitivity score (U2OS [15])
1 | CC(C)(C)C(=O)C(Oc1ccc(Cl)cc1)n1ccnc1 (stereo unspecified) [climbazole] | 108% | 100% | 104% | 97% | 98.2% | 94.5% | 102% | 98.3% | 94.7% | 101% | 113% | 104% | 93.8% | 107% | 102% | 96.6% | 101% | 98.1% | 92.2% | 97.1% | > 10 µM | > 10 µM | > 10 µM | > 10 µM | 0 | 0 | 0 | 0 |  |  |  |  |  |  | 
2 | CN1c2ccccc2C(NCCCCCCC(=O)O)c2ccc(Cl)cc2S1(=O)=O (stereo unspecified) [tianeptine] | 103% | 92.7% | 107% | 94.8% | 92.8% | 100% | 103% | 92.4% | 102% | 102% | 100% | 108% | 96.2% | 108% | 98.6% | 104% | 102% | 101% | 94.1% | 88.1% | > 10 µM | > 10 µM | > 10 µM | > 10 µM | 0 | 0 | 0 | 0.3 |  |  |  |  |  |  | 
3 | CC(C)[C@@H](C)/C=C/[C@@H](C)[C@H]1CC[C@H]2C3=CC=C4C[C@@H](O)CC[C@]4(C)[C@H]3CC[C@]12C [ergosterol] |  |  |  |  |  |  |  |  |  |  | 92% | 102% | 96.5% | 104% | 95% | 95.7% | 103% | 94.7% | 102% | 95.5% |  |  | > 10 µM | > 10 µM |  |  | 0 | 0 | 103% | 96.7% | 97.8% | 94.7% | 102% | > 10 µM | 0
4 | CN(C)c1ccc2c(c1)Sc1cc(N(C)C)ccc1N2 [leucomethylene-blue] | 95.2% | 99% | 102% | 94.1% | 23.1% | 101% | 102% | 102% | 109% | 9% | 93.1% | 93.2% | 93.6% | 76.4% | 7.7% | 95.8% | 97.1% | 93.9% | 85.2% | 45.9% | 2.54 µM | 3.65 µM | 1.53 µM | 1.55 µM | 5.2 | 4.4 | 8.7 | 4.9 | 99.5% | 94.1% | 97.2% | 99.6% | 56.9% |  | 2.2
